Results published in patent publication US9708309B2, “Arylcyclopropylamine based demethylase inhibitors of LSD1 and their medical use” (Oryzon Genomics S.A., priority 2010, dated 2017).
Entries after “also recorded” stand apart in the source; their conditions may differ.

How the values were obtained:
[1] = target: Human recombinant MAO-A (Homo sapiens (Human), UniProt P21397); test: biochemical
Description: Human recombinant monoamine oxidase proteins MAO-A and MAO-B were purchased from Sigma Aldrich. […] In order to monitor MAO enzymatic activities and/or their inhibition rate by inhibitor(s) of interest, a fluorescent-based (inhibitor)-screening assay was set up. 3-(2-Aminophenyl)-3-oxopropanamine (kynuramine dihydrobromide, Sigma Aldrich), a non fluorescent compound was chosen as a substrate. Kynuramine is a non-specific substrate for both MAOs activities. While undergoing oxidative deamination by MAO activities, kynuramine is converted into 4-hydroxyquinoline (4-HQ), a resulting fluorescent product.
The monoamine oxidase activity was estimated by measuring the conversion of kynuramine into 4-hydroxyquinoline. Assays were conducted in 96-well black plates with clear bottom (Corning) in a final volume of 100 μL. […]
After leaving the enzyme(s) interacting with the inhibitor, 60 to 90 μM of kynuramine was added to each reaction for MAO-B and MAO-A assay respectively, and the reaction was left for 1 hour at 37° C. in the dark. […] The conversion of kynuramine to 4-hydroxyquinoline, was monitored by fluorescence (excitation at 320 nm, emission at 360 nm) using a microplate reader (Infinite 200, Tecan). Arbitrary units were used to measure levels of fluorescence produced in the absence and/or in the presence of inhibitor.
The Ki (IC50) of each inhibitor was determined at Vmax/2.

[2] = target: MAO-B (Homo sapiens (Human), UniProt P27338); conditions: ratio of kinact/KI MAO-B over MAO-A
MAO-B, sequence (P27338 whole entry): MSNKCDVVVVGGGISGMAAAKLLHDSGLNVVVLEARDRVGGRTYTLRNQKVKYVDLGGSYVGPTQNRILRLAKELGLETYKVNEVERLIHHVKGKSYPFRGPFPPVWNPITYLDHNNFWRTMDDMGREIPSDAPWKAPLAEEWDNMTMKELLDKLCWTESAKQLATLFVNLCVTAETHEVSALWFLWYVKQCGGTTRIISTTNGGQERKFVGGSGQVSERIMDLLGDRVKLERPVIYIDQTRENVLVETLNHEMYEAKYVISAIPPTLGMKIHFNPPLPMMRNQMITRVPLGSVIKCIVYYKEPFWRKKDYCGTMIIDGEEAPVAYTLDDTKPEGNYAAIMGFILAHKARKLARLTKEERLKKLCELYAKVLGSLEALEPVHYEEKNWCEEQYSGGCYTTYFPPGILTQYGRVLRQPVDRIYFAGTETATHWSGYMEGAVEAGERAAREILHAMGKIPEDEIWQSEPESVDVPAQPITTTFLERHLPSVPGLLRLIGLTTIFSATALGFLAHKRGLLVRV
Protocol: For MAO-B, the protein was kept between 1.8 and 3.6 ng/ul (Sigma M7441) and kynuramine (Sigma) at 50 uM was used as substrate.

[3] = target: LSD1 protein (Homo sapiens (Human), UniProt O60341); conditions: 25° C., H3-K4me2 peptide
Protocol: The kinetic parameters of LSD1 demethylase inhibition were obtained using the peroxidase-coupled reaction method. […] The final DMSO concentration was 0.7% and constant in all assay wells.
The conversion of the Amplex® Red reagent to resorufin due to generation of H2O2 was continuously monitored by fluorescence (excitation at 540 nm, emission at 590 nm) using a microplate reader (Infinite 200, Tecan). A solution of 1 μM H2O2 was used to calibrate the fluorescence signal and the temperature was kept constant at 25° C.
Briefly, progress curves obtained in the presence of test compound were fit to derive kobs (k) based on the following equation:
The kobs values were then used to derive the kinetic constant by using the following equations (Kitz and Wilson analysis):

Human recombinant MAO-A, sequence (P21397 whole entry): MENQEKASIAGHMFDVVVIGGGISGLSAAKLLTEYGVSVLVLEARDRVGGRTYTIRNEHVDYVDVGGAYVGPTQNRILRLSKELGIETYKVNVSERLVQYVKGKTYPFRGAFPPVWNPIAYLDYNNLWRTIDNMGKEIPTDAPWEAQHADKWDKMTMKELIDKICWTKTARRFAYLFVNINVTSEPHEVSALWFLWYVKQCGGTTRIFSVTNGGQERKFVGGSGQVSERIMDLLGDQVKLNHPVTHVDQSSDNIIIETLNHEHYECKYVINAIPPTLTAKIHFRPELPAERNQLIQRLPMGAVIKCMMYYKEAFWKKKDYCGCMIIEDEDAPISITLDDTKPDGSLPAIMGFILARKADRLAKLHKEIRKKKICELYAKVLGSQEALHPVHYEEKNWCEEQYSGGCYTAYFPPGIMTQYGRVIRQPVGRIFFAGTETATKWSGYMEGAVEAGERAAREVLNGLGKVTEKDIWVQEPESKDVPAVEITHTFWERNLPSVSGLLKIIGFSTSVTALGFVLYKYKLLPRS

| Ki [1] [µM] | selectivity index kinact/KI for MAO-B/MAO-A [2] | Catalytic efficiency kinact/KI, LSD1 [3] | Structure (SMILES) |
| --- | --- | --- | --- |
| 1 to 40 |  |  | Nc1nnc(CN[C@H]2C[C@@H]2c2ccc(OCc3cccc(F)c3)cc2)o1 (relative stereo) [Example 12, 5-((((trans)-2-(4-((3-fluorobenzyl)oxy)phenyl)cyclopropyl)amino)methyl)-1,3,4-oxadiazol-2-amine] |
| 1 to 40 |  |  | Nc1nnc(CN[C@H]2C[C@@H]2c2ccc(OCc3ccc(Cl)cc3)cc2)o1 (relative stereo) [Example 14, 5-((((trans)-2-(4-((4-chlorobenzyl)oxy)phenyl)cyclopropyl)amino)methyl)-1,3,4-oxadiazol-2-amine] |
|  | 120 | not active; also recorded: Inactive | C#CCN[C@@H]1CCc2ccccc21 [Rasagiline] |
